Values quoted from earlier work, collected in US6514544B2, “Beverage for increasing the body's capacity to break down alcohol and method thereof” (JHS-Privatstiftung, priority 1998, dated 2003).

share of the reabsorbed alcohol excreted via the kidneys (approximately): 1-2%
share of the reabsorbed alcohol excreted via the lungs (approximately): 2-3%
amount directly glucuronated (slight amounts): 0.5%
SMILES: CCO [alcohol, ethanol]
